Test results taken from US20120270251A1, “INHIBITION OF THE ACTIVITY OF KINASE AND SYNTHETASE ENZYMES” (CSIR, priority 2009, published 2012).

Target: Mycobacterium tuberculosis shikimate kinase (Mycobacterium tuberculosis, UniProt P9WPY3)
Assay: Shikimate kinase steady-state kinetics, ATP vs C8D-ATP
Type: biochemical
Text: Hexokinase from Saccharomyces cerevisiae Type F-300 (Sigma, H4502) and Acetate kinase from E. coli (Sigma, A7437) were purchased. The human adenylate kinase (AK1) gene in vector pLIG-SC1 was obtained from the Structural Genomics Consortium (code AK1A). The His-tagged AK1 was produced in Escherichia coli Origami (DE3) and purified using the Bio-Rad Profinia Purification System. […] The Mycobacterium tuberculosis shikimate kinase gene in pET15b (Novagen) was obtained from the group of Chris Abell, Cambridge University, UK. The his-tagged MtSK was produced in E. coli BL21 (DE3) and purified using the Bio-Rad Profinia Purification System. The pure protein was dialysed against 50 mM Tris (pH 7.5) and 1,000 mM NaCl. Adenylylated (GS12) and deadenylylated (GS0) glutamine synthetase were prepared as outlined below.
The final volumes were 100 μl, and the reactions were incubated at 37° C. for 20 minutes, before being terminated by the addition of 5 μl 200 mM EDTA.
The results are reflected in FIGS. 19 to 25. […] The best-fit to the data was obtained for the specified kinetic model using the non-linear regression algorithms as outlined using the GraphPad Prism® 5 software. […] These response curves were then used to define the KIE by the conventional estimation of KIE from KIE=vH/vD. The KIED was also determined using the following function: […]

[1] = tested model: Allosteric sigmoidal

Chain of Mycobacterium tuberculosis shikimate kinase (P9WPY3 whole entry): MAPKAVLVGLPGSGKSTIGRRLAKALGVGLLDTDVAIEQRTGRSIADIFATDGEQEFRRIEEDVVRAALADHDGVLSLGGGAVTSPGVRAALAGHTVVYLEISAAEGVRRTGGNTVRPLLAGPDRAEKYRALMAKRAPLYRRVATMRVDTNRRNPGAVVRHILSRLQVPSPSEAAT

Structure (SMILES) | fit to kinetic model [1] | fit to kinetic model (tested model: Michaelis-Menton) | KIEvmax (KIE at maximum enzyme activity)
Nc1ncnc2c1ncn2[C@@H]1O[C@H](COP(=O)(O)OP(=O)(O)OP(=O)(O)O)[C@@H](O)[C@H]1O [ATP, adenosine triphosphate, reference compound] | Allosteric sigmoidal | Fit ambiguous | 
Nc1ncnc2c1ncn2[C@@H]1O[C@H](COP(=O)(O)OP(=O)(O)OP(=O)(O)O)[C@@H](O)[C@H]1O [C8D-ATP] | Allosteric sigmoidal | Fit ambiguous | 1
